The record followed here is ChEMBL document CHEMBL3822442, “Synthesis and Pharmacological Characterization of Novel Glucagon-like Peptide-2 (GLP-2) Analogues with Low Systemic Clearance” (J Med Chem, 2016).

Data set [1] is described as follows: Systemic clearance in Sprague-Dawley rat at 0.2 mg/kg, iv through cassette dosing measured up to 300 mins by LC/MS/MS analysis. To be noted: in vivo. Type of data set: ADME, organism-based.
The test system of the next data set is HEK293. Kind of data set: Selectivity ratio of EC50 for human GLP1R expressed in HEK293 cells to EC50 for human GLP2R expressed in HEK293. Type of data set: cell-based.
The target in data set [2] is T1, Glucagon-like peptide 2 receptor (Homo sapiens, UniProt O95838).
T1 sequence (O95838 whole entry): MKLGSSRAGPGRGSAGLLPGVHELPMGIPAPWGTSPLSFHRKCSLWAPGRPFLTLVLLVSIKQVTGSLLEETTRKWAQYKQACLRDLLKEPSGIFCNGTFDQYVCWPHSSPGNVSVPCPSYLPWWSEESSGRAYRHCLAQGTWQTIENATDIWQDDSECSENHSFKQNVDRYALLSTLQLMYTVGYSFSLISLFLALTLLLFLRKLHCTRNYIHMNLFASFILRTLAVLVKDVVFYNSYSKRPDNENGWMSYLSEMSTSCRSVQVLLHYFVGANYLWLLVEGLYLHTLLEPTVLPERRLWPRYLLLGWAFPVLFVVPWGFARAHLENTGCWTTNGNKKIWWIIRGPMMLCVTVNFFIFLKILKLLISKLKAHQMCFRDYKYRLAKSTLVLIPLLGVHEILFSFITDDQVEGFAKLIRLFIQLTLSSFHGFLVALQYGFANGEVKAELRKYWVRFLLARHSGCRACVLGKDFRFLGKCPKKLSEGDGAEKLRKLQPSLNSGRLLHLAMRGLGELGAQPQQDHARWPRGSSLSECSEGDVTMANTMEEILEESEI
Kind of data set: Agonist activity at human GLP2R expressed in HEK293 cells after 5 hrs by luciferase reporter gene assay. Type of data set: cell-based. (Reporter assays use an easily measured gene product as a stand-in for the process of interest.)

Data set [3] deals with Glucagon-like peptide 1 receptor (Homo sapiens, UniProt P43220). Kind of data set: Agonist activity at human GLP1R expressed in HEK293 cells after 5 hrs by luciferase reporter gene assay. Type of data set: cell-based.
Glucagon-like peptide 1 receptor, sequence (P43220 whole entry): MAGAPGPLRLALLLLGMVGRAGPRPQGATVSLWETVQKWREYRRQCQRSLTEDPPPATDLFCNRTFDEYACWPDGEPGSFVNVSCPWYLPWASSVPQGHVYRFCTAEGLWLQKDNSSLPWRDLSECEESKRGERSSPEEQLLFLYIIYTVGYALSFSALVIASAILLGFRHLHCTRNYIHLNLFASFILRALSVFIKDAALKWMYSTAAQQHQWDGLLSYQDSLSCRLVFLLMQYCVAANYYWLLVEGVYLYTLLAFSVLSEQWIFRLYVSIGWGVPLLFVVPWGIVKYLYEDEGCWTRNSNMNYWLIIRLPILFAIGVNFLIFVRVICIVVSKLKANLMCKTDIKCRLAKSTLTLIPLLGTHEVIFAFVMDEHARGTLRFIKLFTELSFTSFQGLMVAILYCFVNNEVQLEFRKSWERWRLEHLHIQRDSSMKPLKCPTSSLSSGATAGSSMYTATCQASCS

The term clearance denotes the rate of elimination divided by the concentration. Low values mean inefficient removal, high ones efficient removal. One may read the EC50 as the concentration giving half of the maximal effect. In data set [1], `CCCCC(NC(=O)[C@H](CCC(=O)O)NC(=O)[C@H](CC(=O)O)NC(=O)[C@H](CO)NC(=O)[C@H](Cc1ccccc1)NC(=O)[C@H](CO)NC(=O)CNC(=O)[C@H](CC(=O)O)NC(=O)CNC(=O)[C@@H](N)Cc1cnc[nH]1)C(=O)N[C@H](Cc1ccccc1)C(=O)N[C@H](C(=O)N[C@H](C(=O)N[C@@H](CC(C)C)C(=O)N[C@@H](CC(=O)O)C(=O)N[C@@H](CC(C)C)C(=O)N[C@@H](CC(C)C)C(=O)N[C@@H](C)C(=O)N[C@H](C(=O)N[C@@H](CCCNC(=N)N)C(=O)N[C@@H](CC(=O)O)C(=O)N[C@@H](Cc1ccccc1)C(=O)N[C@H](C(=O)N[C@@H](CC(N)=O)C(=O)N[C@@H](Cc1c[nH]c2ccccc12)C(=O)N[C@@H](CC(C)C)C(=O)N[C@H](C(=O)N[C@@H](CCC(N)=O)C(=O)N[C@H](C(=O)N[C@@H](CCCCN)C(N)=O)[C@@H](C)O)[C@@H](C)CC)[C@@H](C)CC)[C@@H](C)O)[C@@H](C)CC)[C@@H](C)O` (stereo partly specified) displayed a clearance of 0.49 mL/min/kg. For the same compound, the Ratio EC50 in the data set on HEK293 worked out at 3200. Also, the EC50 in data set [2] is 0.04 nM; in data set [3], 130 nM.

In data set [1], `CCCCC(NC(=O)[C@H](CCC(=O)O)NC(=O)[C@H](CC(=O)O)NC(=O)[C@H](CO)NC(=O)[C@H](Cc1ccccc1)NC(=O)[C@H](CO)NC(=O)CNC(=O)[C@H](CC(=O)O)NC(=O)CNC(=O)[C@@H](N)Cc1cnc[nH]1)C(=O)N[C@H](Cc1cccc(Cl)c1)C(=O)N[C@H](C(=O)N[C@H](C(=O)N[C@@H](CC(C)C)C(=O)N[C@@H](CC(=O)O)C(=O)N[C@@H](Cc1ccccc1)C(=O)N[C@@H](CC(C)C)C(=O)N[C@@H](C)C(=O)N[C@@H](C)C(=O)N[C@@H](CCCNC(=N)N)C(=O)N[C@@H](CC(=O)O)C(=O)N[C@@H](Cc1ccccc1)C(=O)N[C@H](C(=O)N[C@@H](CC(N)=O)C(=O)N[C@@H](Cc1c[nH]c2ccccc12)C(=O)N[C@@H](CC(C)C)C(=O)N[C@H](C(=O)N[C@@H](CCC(N)=O)C(=O)N[C@H](C(=O)N[C@@H](CCCCN)C(=O)N[C@H](C(=O)N[C@H](C(=O)N[C@@H](CC(=O)O)C(N)=O)[C@@H](C)O)[C@@H](C)CC)[C@@H](C)O)[C@@H](C)CC)[C@@H](C)CC)[C@@H](C)CC)[C@@H](C)O` (stereo partly specified) gave a clearance of 0.12 mL/min/kg. Further, in the data set on HEK293, the Ratio EC50 was above 7600. The EC50 was 0.13 nM in data set [2] and above 1000 nM in data set [3].

Compound `CCCCC(NC(=O)[C@H](CCC(=O)O)NC(=O)[C@H](CC(=O)O)NC(=O)[C@H](CO)NC(=O)[C@H](Cc1ccccc1)NC(=O)[C@H](CO)NC(=O)CNC(=O)[C@H](CC(=O)O)NC(=O)CNC(=O)[C@@H](N)Cc1cnc[nH]1)C(=O)N[C@H](Cc1ccccc1)C(=O)N[C@H](C(=O)N[C@H](C(=O)N[C@@H](CC(C)C)C(=O)N[C@@H](CC(=O)O)C(=O)N[C@@H](CC(C)C)C(=O)N[C@@H](CC(C)C)C(=O)N[C@@H](C)C(=O)N[C@@H](C)C(=O)N[C@@H](CCCNC(=N)N)C(=O)N[C@@H](CC(=O)O)C(=O)N[C@@H](Cc1ccccc1)C(=O)N[C@H](C(=O)N[C@@H](CC(N)=O)C(=O)N[C@@H](Cc1c[nH]c2ccccc12)C(=O)N[C@@H](CC(C)C)C(=O)N[C@H](C(=O)N[C@@H](CCC(N)=O)C(=O)N[C@H](C(=O)N[C@@H](CCCCN)C(=O)N[C@H](C(=O)N[C@H](C(=O)N[C@@H](CC(=O)O)C(=O)NCc1ccccc1)[C@@H](C)O)[C@@H](C)CC)[C@@H](C)O)[C@@H](C)CC)[C@@H](C)CC)[C@@H](C)CC)[C@@H](C)O` (stereo partly specified) showed a clearance in data set [1] of 0.1 mL/min/kg. Also, the Ratio EC50 in the data set on HEK293 is above 10000. The values for the concentration for a half-maximal effect (EC50) in data set [2] and in data set [3] were 0.1 nM and above 1000 nM, respectively.

In data set [1], `CCCCC(NC(=O)[C@H](CCC(=O)O)NC(=O)[C@H](CC(=O)O)NC(=O)[C@H](CO)NC(=O)[C@H](Cc1ccccc1)NC(=O)[C@H](CO)NC(=O)CNC(=O)[C@H](CC(=O)O)NC(=O)CNC(=O)[C@@H](N)Cc1cnc[nH]1)C(=O)N[C@H](Cc1cccc(Cl)c1)C(=O)N[C@H](C(=O)N[C@H](C(=O)N[C@@H](CC(C)C)C(=O)N[C@@H](CC(=O)O)C(=O)N[C@@H](CC(C)C)C(=O)N[C@@H](CC(C)C)C(=O)N[C@@H](C)C(=O)N[C@@H](C)C(=O)N[C@@H](CCCNC(=N)N)C(=O)N[C@@H](CC(=O)O)C(=O)N[C@@H](Cc1ccccc1)C(=O)N[C@H](C(=O)N[C@@H](CC(N)=O)C(=O)N[C@@H](Cc1c[nH]c2ccccc12)C(=O)N[C@@H](CC(C)C)C(=O)N[C@H](C(=O)N[C@@H](CCC(N)=O)C(=O)N[C@H](C(=O)N[C@@H](CCCCN)C(=O)N[C@H](C(=O)N[C@H](C(=O)N[C@@H](CC(=O)O)C(N)=O)[C@@H](C)O)[C@@H](C)CC)[C@@H](C)O)[C@@H](C)CC)[C@@H](C)CC)[C@@H](C)CC)[C@@H](C)O` (stereo partly specified) yielded a clearance of 0.2 mL/min/kg. Besides, the Ratio EC50 in the data set with HEK293 was above 11000. For the same compound, the 50% effective concentration (EC50) in data set [2] was 0.09 nM; in data set [3] it was above 1000 nM.

`CCCCC(NC(=O)[C@H](CCC(=O)O)NC(=O)[C@H](CC(=O)O)NC(=O)[C@H](CO)NC(=O)[C@H](Cc1ccccc1)NC(=O)[C@H](CO)NC(=O)CNC(=O)[C@H](CC(=O)O)NC(=O)CNC(=O)[C@@H](N)Cc1cnc[nH]1)C(=O)N[C@H](Cc1ccccc1)C(=O)N[C@H](C(=O)N[C@H](C(=O)N[C@@H](CC(C)C)C(=O)N[C@@H](CC(=O)O)C(=O)N[C@@H](Cc1ccc(O)cc1)C(=O)N[C@@H](CC(C)C)C(=O)N[C@@H](C)C(=O)N[C@@H](C)C(=O)N[C@@H](CCCNC(=N)N)C(=O)N[C@@H](CC(=O)O)C(=O)N[C@@H](Cc1ccccc1)C(=O)N[C@H](C(=O)N[C@@H](CC(N)=O)C(=O)N[C@@H](Cc1c[nH]c2ccccc12)C(=O)N[C@@H](CC(C)C)C(=O)N[C@H](C(=O)N[C@@H](CCC(N)=O)C(=O)N[C@H](C(=O)N[C@@H](CCCCN)C(N)=O)[C@@H](C)O)[C@@H](C)CC)[C@@H](C)CC)[C@@H](C)CC)[C@@H](C)O` (stereo partly specified) had a clearance in data set [1] of 0.48 mL/min/kg. The Ratio EC50 with HEK293 is 1200. In addition, the EC50 stood at 0.07 nM in data set [2] and 90 nM in data set [3].

`CCCCC(NC(=O)[C@H](CCC(=O)O)NC(=O)[C@H](CC(=O)O)NC(=O)[C@H](CO)NC(=O)[C@H](Cc1ccccc1)NC(=O)[C@H](CO)NC(=O)CNC(=O)[C@H](CC(=O)O)NC(=O)CNC(=O)[C@@H](N)Cc1cnc[nH]1)C(=O)N[C@H](Cc1cccs1)C(=O)N[C@H](C(=O)N[C@H](C(=O)N[C@@H](CC(C)C)C(=O)N[C@@H](CC(=O)O)C(=O)N[C@@H](Cc1ccc(O)cc1)C(=O)N[C@@H](CC(C)C)C(=O)N[C@@H](C)C(=O)N[C@@H](C)C(=O)N[C@@H](CCCNC(=N)N)C(=O)N[C@@H](CC(=O)O)C(=O)N[C@@H](Cc1ccccc1)C(=O)N[C@H](C(=O)N[C@@H](CC(N)=O)C(=O)N[C@@H](Cc1c[nH]c2ccccc12)C(=O)N[C@@H](CC(C)C)C(=O)N[C@H](C(=O)N[C@@H](CCC(N)=O)C(=O)N[C@H](C(=O)N[C@@H](CCCCN)C(N)=O)[C@@H](C)O)[C@@H](C)CC)[C@@H](C)CC)[C@@H](C)CC)[C@@H](C)O` (stereo partly specified): the clearance in data set [1] turned out to be 0.52 mL/min/kg. Further, the half-maximal effective concentration (EC50) in data set [2] worked out at 0.07 nM; in data set [3], 70 nM.

Compound `CCCCC(NC(=O)[C@H](CCC(=O)O)NC(=O)[C@H](CC(=O)O)NC(=O)[C@H](CO)NC(=O)[C@H](Cc1ccccc1)NC(=O)[C@H](CO)NC(=O)CNC(=O)[C@H](CC(=O)O)NC(=O)CNC(=O)[C@@H](N)Cc1cnc[nH]1)C(=O)N[C@H](Cc1ccccc1)C(=O)N[C@H](C(=O)N[C@H](C(=O)N[C@@H](CC(C)C)C(=O)N[C@@H](CC(=O)O)C(=O)N[C@@H](CC(C)C)C(=O)N[C@@H](CC(C)C)C(=O)N[C@@H](C)C(=O)N[C@@H](C)C(=O)N[C@@H](CCCNC(=N)N)C(=O)N[C@@H](CC(=O)O)C(=O)N[C@@H](Cc1ccccc1)C(=O)N[C@H](C(=O)N[C@@H](CC(N)=O)C(=O)N[C@@H](Cc1c[nH]c2ccccc12)C(=O)N[C@@H](CC(C)C)C(=O)N[C@H](C(=O)N[C@@H](CCC(N)=O)C(=O)N[C@H](C(=O)N[C@@H](CCCCN)C(=O)N[C@H](C(=O)N[C@H](C(=O)N[C@@H](CC(=O)O)C(=O)NCc1ccncc1)[C@@H](C)O)[C@@H](C)CC)[C@@H](C)O)[C@@H](C)CC)[C@@H](C)CC)[C@@H](C)CC)[C@@H](C)O` (stereo partly specified) registered a clearance in data set [1] of 0.27 mL/min/kg. For the same compound, the Ratio EC50 in the data set on HEK293 is above 25000. The 50% effective concentration (EC50) in data set [2] was 0.04 nM; in data set [3] it was above 1000 nM.

In data set [1], `CCCCC(NC(=O)[C@H](CCC(=O)O)NC(=O)[C@H](CC(=O)O)NC(=O)[C@H](CO)NC(=O)[C@H](Cc1ccccc1)NC(=O)[C@H](CO)NC(=O)CNC(=O)[C@H](CC(=O)O)NC(=O)CNC(=O)[C@@H](N)Cc1cnc[nH]1)C(=O)N[C@H](Cc1cccs1)C(=O)N[C@H](C(=O)N[C@H](C(=O)N[C@@H](CC(C)C)C(=O)N[C@@H](CC(=O)O)C(=O)N[C@@H](CC(C)C)C(=O)N[C@@H](CC(C)C)C(=O)N[C@@H](C)C(=O)N[C@H](C(=O)N[C@@H](CCCNC(=N)N)C(=O)N[C@@H](CC(=O)O)C(=O)N[C@@H](Cc1ccccc1)C(=O)N[C@H](C(=O)N[C@@H](CC(N)=O)C(=O)N[C@@H](Cc1c[nH]c2ccccc12)C(=O)N[C@@H](CC(C)C)C(=O)N[C@H](C(=O)N[C@@H](CCC(N)=O)C(=O)N[C@H](C(=O)N[C@@H](CCCCN)C(=O)N[C@H](C(=O)N[C@H](C(=O)N[C@@H](CC(=O)O)C(N)=O)[C@@H](C)O)[C@@H](C)CC)[C@@H](C)O)[C@@H](C)CC)[C@@H](C)CC)[C@@H](C)O)[C@@H](C)CC)[C@@H](C)O` (stereo partly specified) gave a clearance of 0.28 mL/min/kg. In addition, the Ratio EC50 in the data set on HEK293 is above 20000. Further, the EC50 in data set [2] was 0.05 nM; in data set [3], above 1000 nM.
